Read-outs that look alike come from different tables or passages of the source. Ends that are not written are not given here.

Test [1] concerns the target JMJD6^FL. Put plainly: CPMG-edited NMR titration, apparent binding constant of 2OG. On the set-up: species or system human. As to conditions: CPMG-edited 1H NMR (700 MHz), 20 μM 2OG, 200 μM Zn(II), Tris-d11 pH 7.5, titrated with EDTA-treated JMJD6; mean ± S.D. (n = 3); read-out: 2OG KD^app. As to the method: (§1) 20 μM 2OG and 200 μM Zn(II) were mixed in deuterated Tris-d11, pH 7.5, and the ^1H NMR signals for 2OG were recorded at 700 MHz ([39]). […] Typically, a 5–10% error was allowed in the curve-fitting process.
(§2) CPMG displacement experiments used a Bruker AV700 NMR machine, as reported previously ([39]). The PROJECT (Periodic Refocusing of J Evolution by Coherence Transfer)-CPMG sequence (90°x − (τ − 180°y − τ − 90°y − τ − 180°y − τ)n − acquisition) was applied ([56]). […] Water suppression was achieved by presaturation ([57], [58]).

Test [2] concerns the target JMJD6^Δ344–403. Described as above. On the set-up: species or system human. The conditions noted are these: CPMG-edited 1H NMR (700 MHz), 20 μM 2OG, 200 μM Zn(II), Tris-d11 pH 7.5, titrated with EDTA-treated JMJD6; mean ± S.D. (n = 3); read-out: 2OG KD^app. As to the method:
as §1, §2

Test [3] has as its system JMJD6^FL. As to conditions: read-out: 2OG Km^app; standard hydroxylation assay conditions, 2OG varied 0–150 μM, 37 °C, HEPES-KOH pH 8.0; mean ± S.D. (n = 3). As to the method:
(§3) JMJD6 activity was assayed using a reaction mixture of 10 μM purified JMJD6 and 100 μM substrate peptide, at 37 °C in 50 mM HEPES-KOH, pH 8.0, buffer supplemented with 100 μM (NH4)2Fe(SO4)2·6H2O (Sigma), 400 μM L-sodium ascorbate (Sigma), and 500 μM disodium 2OG (Fluka). After 30 min, the reaction was quenched by an equal volume of 1% (v/v) aqueous formic acid (Sigma). In a 96-well MALDI plate (Waters), 0.8 μl of CHCA (α-cyano-4-hydroxycinnamic acid, Aldrich) ([…] in 0.1 ml of CHCA solvent) and 0.6 μl of the quenched mixture were placed in a well. After drying, the samples were analyzed by MALDI-TOF MS using a reported procedure ([59], [60]). The kinetic data obtained thereafter were fitted using GraphPad Prism (GraphPad Software) ([59], [60]).

For test [4], the system named is JMJD6^Δ344–403. As to conditions: read-out: 2OG Km^app; standard hydroxylation assay conditions, 2OG varied 0–150 μM, 37 °C, HEPES-KOH pH 8.0; mean ± S.D. (n = 3). As to the method: as §3
For test [5], the target named is T1, JMJD6^Δ363–403 (Homo sapiens, UniProt Q6NYC1). As to conditions: read-out: 2OG Km^app; standard hydroxylation assay conditions, 2OG varied 0–150 μM, 37 °C, HEPES-KOH pH 8.0; mean ± S.D. (n = 3). Here is the method:
as §3

Test [6] has as its system JMJD6^FL. As to conditions: read-out: 2OG Km^app; reported for JMJD6^FL; ref Mantri et al. ([23]); cited from earlier work.
Test [7] has as its target T1, JMJD6^Δ363–403. Put plainly: CPMG-edited NMR titration, apparent binding constant of 2OG. On the set-up: two more variants (aa 1–362, JMJD6^Δ363–403, and aa 1–343, JMJD6^Δ344–403); His6 (N); made in house; host or cells: Escherichia coli Rosetta2(DE3). As to conditions: CPMG-edited 1H NMR (700 MHz), 20 μM 2OG, 200 μM Zn(II), Tris-d11 pH 7.5, titrated with EDTA-treated JMJD6; mean ± S.D. (n = 3); read-out: 2OG KD^app. As to the method: as §1, §2

The test system of test [8] is SAKcaC (stretch-activated BK channel). The test is described as follows: Single-channel current recording of SAKcaC with GsMTx4 back-filled in the pipette. In kind it is cell-based, chick. The conditions noted are these: for Po of SAKcaC (amplitude histogram): 50 nM GsMTx4 in pipette, 25 min after onset of back-filling, chick ventricular myocytes, typical patch.
The target of test [9] is T1, JMJD6^Δ363–403. The test is described as follows: Standard MS-based hydroxylation assay (MALDI-TOF MS) of substrate peptides. Format: biochemical. On the set-up: two more variants (aa 1–362, JMJD6^Δ363–403, and aa 1–343, JMJD6^Δ344–403); His6 (N); made in house; host or cells: Escherichia coli Rosetta2(DE3). The conditions noted are these: for Hydroxylation: 10 μM JMJD6^Δ363–403, 100 μM peptide, 100 μM Fe(II), 400 μM ascorbate, 500 μM 2OG, 50 mM HEPES-KOH pH 8.0, 37 °C, 30 min, MALDI-TOF MS; for Hydroxylation / kcat / Km: mean ± S.D. (n = 3); for kcat/Km^app / kcat / Km: standard hydroxylation assay conditions, substrate peptide varied 0–400 μM; for Km: read-out: Km^app; for JMJD6-catalyzed hydroxylation (+16-Da mass shift), result in words: JMJD6^Δ363–403, standard assay conditions, MALDI-TOF MS / LC-MS/MS.

The subject of the next test is JMJD2E (KDM4E). The test is described as follows: MS-based demethylation assay, positive control for RDM activity. Format: biochemical. As to conditions: same conditions, MALDI-TOF MS / LC-MS/MS. As to the method:
Reaction samples were thereafter analyzed by MALDI-TOF or LC-MS/MS.
Peptides were “trapped” on an in-house packed guard column (75-μm inner diameter × 20 mm, Acclaim PepMap® C18, 3 μm, 100 Å) using solvent A (0.1% (v/v) aqueous formic acid) at a pressure of 140 bar. Peptides were separated on an EASY-Spray Acclaim PepMap® analytical column (75 μm inner diameter × 15 mm, rapid separation liquid chromatography C18, 3 μm, 100 Å) using a linear gradient (length, 100 min; 3–60% solvent B (0.1% formic acid in acetonitrile), flow rate, 300 nl/min). The separated peptides were electro-sprayed directly into the spectrometer operating in a data-dependent mode using a collision-induced dissociation/electron transfer dissociation (CID/ETD)-based method. Full scan MS spectra (scan range 150–2000 m/z, resolution 30,000, AGC target 1 × 10^6, maximum injection time 250 ms) and subsequent CID MS/MS spectra (AGC target 3 × 10^4, maximum injection time 500 ms) of the 10 most intense peaks were acquired in the Orbitrap. CID fragmentation was performed at 35% of the normalized collision energy, and the signal intensity threshold was kept at 500 counts. ETD spectra (AGC cation target 5 × 10^4, AGC anion target 2 × 10^5, and cation maximum injection time 100 ms) were acquired in the ion trap. PEAKS® 8.0 (Bioinformatics Solutions, Inc., Waterloo, Canada) was used to analyze raw data. […]

The target in test [10] is T1, JMJD6^Δ363–403. Put plainly: Standard MS-based demethylation assay (MALDI-TOF, LC-MS/MS). In kind it is biochemical. On the set-up: two more variants (aa 1–362, JMJD6^Δ363–403, and aa 1–343, JMJD6^Δ344–403); His6 (N); made in house; host or cells: Escherichia coli Rosetta2(DE3). As to conditions: JMJD6^Δ363–403, 37 °C, HEPES-KOH pH 8.0, MALDI-TOF MS / LC-MS/MS. Here is the method: Peptides were “trapped” on an in-house packed guard column (75-μm inner diameter × 20 mm, Acclaim PepMap® C18, 3 μm, 100 Å) using solvent A (0.1% (v/v) aqueous formic acid) at a pressure of 140 bar. Peptides were separated on an EASY-Spray Acclaim PepMap® analytical column (75 μm inner diameter × 15 mm, rapid separation liquid chromatography C18, 3 μm, 100 Å) using a linear gradient (length, 100 min; 3–60% solvent B (0.1% formic acid in acetonitrile), flow rate, 300 nl/min). The separated peptides were electro-sprayed directly into the spectrometer operating in a data-dependent mode using a collision-induced dissociation/electron transfer dissociation (CID/ETD)-based method. Full scan MS spectra (scan range 150–2000 m/z, resolution 30,000, AGC target 1 × 10^6, maximum injection time 250 ms) and subsequent CID MS/MS spectra (AGC target 3 × 10^4, maximum injection time 500 ms) of the 10 most intense peaks were acquired in the Orbitrap. CID fragmentation was performed at 35% of the normalized collision energy, and the signal intensity threshold was kept at 500 counts. ETD spectra (AGC cation target 5 × 10^4, AGC anion target 2 × 10^5, and cation maximum injection time 100 ms) were acquired in the ion trap. PEAKS® 8.0 (Bioinformatics Solutions, Inc., Waterloo, Canada) was used to analyze raw data. The raw MS files were searched against the respective protein sequences. […]

With `O=C(O)CCC(=O)C(=O)O` [Peptide 2OG, 2-oxoglutarate], the Kd was 2300 ± 1600 nM at JMJD6^FL [1], 3500 ± 2100 nM at JMJD6^Δ344–403 [2] and 3000 ± 4800 nM at JMJD6^Δ363–403 [7]. Moreover, the Km in the test on JMJD6^FL [3] was 31 ± 5.3 µM; with JMJD6^Δ344–403 [4] it was 45 ± 10 µM; at JMJD6^Δ363–403 [5] it was 24 ± 5.4 µM; with JMJD6^FL [6], 39 µM.
Take “GsMTx4: inhibitor of stretch-activated BK channel (mismatched supplement) (GCLEFWWKCNPNDDKCCRPKLKCSKLFKLCNFSF; ends and bridges not checked; cysteine pairing not given here; UniProt Q7YT39 47-80, looked up)”: the “Po of SAKcaC (amplitude histogram)” value in test [8] (1 mM intracellular Ca2+) is on record as 35.5; in [8] (–40 mV, 0.8 µM intracellular Ca2+), 14.2. Moreover, in test [8] (100 nM GsMTx4 in the pipette, 1 mM intracellular Ca2+, 30 min after onset of back-filling), the “Effect on stretch-activated BK channel and its single-channel conductance, result in words” value is on record as “inhibits stretch-activated BK channel without changing single-channel conductance”.
With “RSPKRKLSRSPSPR [SRSF11_358–372, fragment of SRSF11]”, on JMJD6^Δ363–403 [9], the Hydroxylation is reported as 44.1 ± 3.9%, the “kcat/Km^app” value was 229 M⁻¹ s⁻¹, the kcat was 174 ± 19 × 10^−4 s^−1 and the Km came to 76 ± 21 µM.
The matching figures for “RSRSGTRSPKKPSR [SRSF11_347–360, fragment of SRSF11]”: 97.0 ± 2.2%, 159 M⁻¹ s⁻¹, 146 ± 9.6 × 10^−4 s^−1 and 92 ± 14 µM.
As for “SGR(me2s)GKGGKGLGKGGAKRHK-biotin [H4R3(me2s)1–18, histone 4 peptide with symmetrically di-methylated Arg3 and K-biotin]”, the “JMJD2E-catalyzed demethylation (−14 and −28 Da mass shifts), result in words” value with JMJD2E (KDM4E) is reported as “manifested demethylation”. The “JMJD6-catalyzed hydroxylation (+16-Da mass shift), result in words” value on JMJD6^Δ363–403 [9] is on record as “catalyzes hydroxylation”. The “JMJD6-catalyzed demethylation (−14 or −28 Da mass shift), result in words” value on JMJD6^Δ363–403 [10] was “does not have RDM activity”.
Regarding “SKSRSRSHERKRS [RBM39_38–50, fragment of RBM39]”, on JMJD6^Δ363–403 [9], the Hydroxylation was found to be 79.0 ± 8.9%, the “kcat/Km^app” value turned out to be 395 M⁻¹ s⁻¹, the kcat is recorded as 281 ± 15 × 10^−4 s^−1 and the Km stood at 71 ± 9.9 µM.
For the compound “SRDHKRSRSRERRRS [CROP311–325, fragment of SR protein CROP/LUC7L3]”, at JMJD6^Δ363–403 [9], the Hydroxylation was 89.3 ± 1.9%, the “kcat/Km^app” value came to 269 M⁻¹ s⁻¹, the kcat was 191 ± 6.6 × 10^−4 s^−1 and the Km was determined as 71 ± 7.2 µM.
In turn, “SRERRKLSRSRSR [LUC7L1_287–298, fragment of LUC7L1]” came in with a Hydroxylation at JMJD6^Δ363–403 [9] of 18.3 ± 3.1%.
Consider “SRRRSRSKSPFR [RBM39_121–132, fragment of RBM39]”, for which, on JMJD6^Δ363–403 [9], the Hydroxylation is 82.5 ± 5.6%, the “kcat/Km^app” value came out at 303 M⁻¹ s⁻¹, the kcat is 300 ± 23 × 10^−4 s^−1 and the Km amounted to 99 ± 19 µM.
In the case of “SRSRRRSHSKSR [SRSF11_271–282, fragment of SRSF11]”, the Hydroxylation at JMJD6^Δ363–403 [9] is recorded as 33.6 ± 1.8%.
As to “SRSRSRDRKRRSRSRDR [U2AF65_30–46, fragment of the RS region of U2AF65]”, at JMJD6^Δ363–403 [9], the Hydroxylation is given as 72.4 ± 6.5%, the “kcat/Km^app” value worked out at 118 M⁻¹ s⁻¹, the kcat is given as 92.0 ± 7.0 × 10^−4 s^−1 and the Km is 78 ± 15 µM.
For “pVHL166–177: lysine-containing pVHL sequence (VRSLVKPENYRR; UniProt P40337 166-177, looked up, fragment)”, the “JMJD6-catalyzed hydroxylation (+16-Da mass shift), result in words” value with JMJD6^Δ363–403 [9] was “presence of a +16-Da mass shift”.
With “pVHL166–177K171A: alanine variant of pVHL166–177 (VRSLVAPENYRR; UniProt P40337 166-177, looked up, fragment K171A)”, the “JMJD6-catalyzed hydroxylation (+16-Da mass shift), result in words” value with JMJD6^Δ363–403 [9] is given as “did not manifest hydroxylation”.

The values above are taken from article PMC6663879, “Biochemical and structural investigations clarify the substrate selectivity of the 2-oxoglutarate oxygenase JMJD6” (The Journal of Biological Chemistry, 2019).
